Test results published in publication PMC3707396 (Bioorganic & medicinal chemistry letters, 2013).

Assays:
[1] = system: PC-3 cells; test: WST-1 cytotoxicity in transfected PC-3 cells; type: cell-based; conditions: Homo sapiens, PC-3, read-out: % inh WST-1 (100 μM)
[2] = Passive permeability, PAMPA Explorer Kit; type: in vitro ADME; conditions: for Log Peff: log of effective permeability, mean of n = 3; for Permeability bin (high, medium or low): ranges not printed (Ref 17)
[3] = Kinetic solubility; type: physicochemical; conditions: for Solubility bin (high, medium or low): kinetic solubility, ranges not printed (in reference)
[4] = system: PC-3 cells; conditions: cited from earlier work
[5] = system: SK-Mel-147 cells; test: WST-1 cytotoxicity in SK-Mel-147 cells; type: cell-based
[6] = system: mice; test: In vivo tolerability study
[7] = system: MKL1; conditions: preliminary studies; cited from earlier work
[8] = biological target: Rho-pathway selective serum response element-luciferase reporter (SRE.L); conditions: read-out: IC50 (SRE.L); cited from earlier work

Row | Structure (SMILES) | inhibition at 100 µM [1] | Log Peff [2] | Permeability bin (high, medium or low) [2] | Solubility bin (high, medium or low) [3] | further results
1 | Cc1cccc(C(=O)N2CCCC(C(=O)Nc3ccc(Cl)cc3)C2)c1 (stereo not drawn) [Compound 8h] | 0% |  |  |  | 
2 | O=C(Nc1cccc(Cc2ccccc2)c1)C1CCCN(C(=O)c2cc(C(F)(F)F)cc(C(F)(F)F)c2)C1 (stereo not drawn) [Compound 12b] |  | −4.7 ± 0.05 cm/s | MOD | LOW | 
3 | Cc1nc(-c2cccc(C(=O)N3CCCC(C(=O)Nc4ccc(Cl)cc4)C3)c2)no1 (stereo not drawn) [Compound 8m] | 0% |  |  |  | 
4 | O=C(c1ccccc1)c1cccc(C(=O)N2CCCC(C(=O)Nc3ccc(Cl)cc3)C2)c1 (stereo not drawn) [Compound 8b] | 0% |  |  |  | 
5 | O=C(Nc1ccc(Cl)cc1)C1CCCN(C(=O)c2cccc(-c3cccs3)c2)C1 (stereo not drawn) [Compound 8u] |  | −10 ± 0.00 cm/s | LOW | LOW | 
6 | O=C(Nc1ccc(Cl)cc1)C1CCCN(C(=O)c2cc(C(F)(F)F)cc(C(F)(F)F)c2)C1 (stereo not drawn) [Compound 2, reference compound] |  | −10 ± 0.00 cm/s | LOW | LOW | Inhibition of invasion into Matrigel by cultured PC-3 cells [4]: can inhibit invasion; solubility [3]: < 10 µg/mL
7 | CCN(CC)S(=O)(=O)c1cccc(C(=O)N2CCCC(C(=O)Nc3ccc(Cl)cc3)C2)c1 (stereo not drawn) [Compound 8k] | 0% |  |  |  | 
8 | O=C(Nc1ccc(Cl)cc1)C1CCCN(C(=O)c2cccc(-c3ccco3)c2)C1 (stereo not drawn) [Compound 8a] | 0% | −8.3 ± 2.3 cm/s | LOW | LOW | WST-1 cytotoxicity [5]: no WST-1 cytotoxicity; Body weight over the course of the study ([6]; 10, 20, 50 and 100 mg/kg/day IP, 5 days): Weight was maintained; Abnormality observed at dissection ([6]; 10, 20, 50 and 100 mg/kg/day IP, 5 days, sacrifice on 8th day): slight increase in liver weight; Tolerability in mice ([6]; 5 days, up to 100 mg/kg/day IP, normal mice): well tolerated; Effect on MKL1 nuclear localization [7]: blocks MKL1 nuclear localization
9 | COCc1cccc(C(=O)N2CCCC(C(=O)Nc3ccc(Cl)cc3)C2)c1 (stereo not drawn) [Compound 8o] | 0% |  |  |  | 
10 | CC(C)(C)CC(=O)Nc1cccc(C(=O)N2CCCC(C(=O)Nc3ccc(Cl)cc3)C2)c1 (stereo not drawn) [Compound 8e] | 0% |  |  |  | 
11 | O=C(Nc1ccc(Cl)cc1)C1CCCN(C(=O)c2cccc([N+](=O)[O-])c2)C1 (stereo not drawn) [Compound 8s] | 0% |  |  |  | 
12 | O=C(Nc1ccc(Cl)cc1)C1CCCN(C(=O)c2cccc(-c3cnco3)c2)C1 (stereo not drawn) [Compound 8j] | 0% |  |  |  | 
13 | COc1cccc(C(=O)N2CCCC(C(=O)Nc3ccc(Cl)cc3)C2)c1 (stereo not drawn) [Compound 8n] | 0% |  |  |  | 
14 | CSc1cccc(C(=O)N2CCCC(C(=O)Nc3ccc(Cl)cc3)C2)c1 (stereo not drawn) [Compound 8i] | 0% |  |  |  | 
15 | N#Cc1cccc(C(=O)N2CCCC(C(=O)Nc3ccc(Cl)cc3)C2)c1 (stereo not drawn) [Compound 8q] | 0% |  |  |  | 
16 | CC(ONC(=O)c1cc(C(F)(F)F)cc(C(F)(F)F)c1)C(=O)Nc1ccc(Cl)cc1 (stereo not drawn) [Compound 1, reference compound] |  |  |  |  | In vivo tolerability (toxicity) ([6]; repeated dosing at 7.5 mg/kg intraperitoneally (IP)): deaths observed; Inhibition of invasion of PC-3 prostate cancer cells ([4]; Matrigel model of metastasis): inhibits invasion
17 | COC(=O)c1cccc(C(=O)N2CCCC(C(=O)Nc3ccc(Cl)cc3)C2)c1 (stereo not drawn) [Compound 8l] | 0% |  |  |  | 
18 | O=C(CCNC(=O)c1cc(C(F)(F)F)cc(C(F)(F)F)c1)Nc1ccc(Cl)cc1 [Compound 19, reference compound] |  | −10 ± 0.00 cm/s | LOW | LOW | IC50 [8]: 38 µM
19 | C=Cc1cccc(C(=O)N2CCCC(C(=O)Nc3ccc(Cl)cc3)C2)c1 (stereo not drawn) [Compound 8f] | 0% |  |  |  | 
20 | O=C(Nc1cccc(Oc2ccccc2)c1)C1CCCN(C(=O)c2cc(C(F)(F)F)cc(C(F)(F)F)c2)C1 (stereo not drawn) [Compound 12a] |  | −5.1 ± 0.40 cm/s | MOD-LOW | LOW | 
